Results reported in patent US9273057B2 (Bristol-Myers Squibb Company, priority 2012, dated 2016).
pIC50: −log10 of the molar value. Structures can show the parent of a compound that is named as a salt.

What follows are molecules tested against CK2A1 (CK2α/β) (Homo sapiens, UniProt P68400) (assay: CK2 kinase assay, CK2A1 (CK2α/β)). Details: Table A; read-out: CK2A1 (CK2α/β) (IC50).
Assay type: biochemical

Sequence of CK2A1 (CK2α/β) (P68400 whole entry, species assumed): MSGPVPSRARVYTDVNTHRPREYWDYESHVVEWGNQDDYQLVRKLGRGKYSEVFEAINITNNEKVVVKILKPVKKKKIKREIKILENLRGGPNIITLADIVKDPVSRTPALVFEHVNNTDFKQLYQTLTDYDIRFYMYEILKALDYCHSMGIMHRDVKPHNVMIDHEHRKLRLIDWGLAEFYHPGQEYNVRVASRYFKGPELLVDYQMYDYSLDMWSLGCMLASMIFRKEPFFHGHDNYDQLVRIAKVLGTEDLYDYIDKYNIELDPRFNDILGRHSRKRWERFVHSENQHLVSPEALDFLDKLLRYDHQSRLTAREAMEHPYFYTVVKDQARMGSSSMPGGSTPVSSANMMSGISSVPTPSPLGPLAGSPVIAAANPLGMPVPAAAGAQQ
Sequence of CK2A1 (CK2α/β) (P67870 whole entry partner, species assumed): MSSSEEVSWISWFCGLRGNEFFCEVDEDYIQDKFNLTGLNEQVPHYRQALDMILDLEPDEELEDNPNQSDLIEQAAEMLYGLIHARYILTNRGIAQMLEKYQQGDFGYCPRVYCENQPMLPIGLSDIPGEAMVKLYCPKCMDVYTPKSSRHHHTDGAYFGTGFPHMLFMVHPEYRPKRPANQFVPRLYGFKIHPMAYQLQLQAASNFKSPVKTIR

SMILES | pIC50
C[C@H](O)CN1CC(N2CCC(c3cc(C#N)cc(Nc4nc(NC5CC5)c5ncc(C#N)n5n4)c3Cl)CC2)C1 [Example 322, 2-((2-chloro-5-cyano-3-(1-(1-((2S)-2-hydroxypropyl)-3-azetidinyl)-4-piperidinyl)phenyl)amino)-4-(cyclopropylamino)imidazo [2,1-f][1,2,4]triazine-7-carbonitrile] | 8.75
CCNc1nc(Nc2cc(C#N)cc(N3CCN(C4CN(C)C4)CC3)c2Cl)nn2c(C#N)cnc12 [Example 583, 2-({2-chloro-5-cyano-3-[4-(1-methylazetidin-3-yl)piperazin-1-yl]phenyl}amino)-4-(ethylamino)imidazo [2,1-f][1,2,4]triazine-7-carbonitrile] | 8.54
COC(=O)N[C@H]1CCN(c2cc(C#N)cc(Nc3nc(NC4CC4)c4ncc(C#N)n4n3)c2Cl)C[C@@H]1N(C)CC(C)(C)O [Example 765, methyl N-[(3S,4S)-1-(2-chloro-5-cyano-3-{[7-cyano-4-(cyclopropylamino)imidazo [2,1-f][1,2,4]triazin-2-yl]amino}phenyl)-3-[(2-hydroxy-2-methylpropyl)(methyl)amino]piperidin-4-yl] carbamate] | 7.63
N#Cc1cc(Nc2nc(NC3CC3)c3ncc(C#N)n3n2)c(Cl)c(N2CCN([C@H]3C[C@@H](C#N)C3)CC2)c1 [Example 106] | 8.91
N#Cc1cc(Nc2nc(NC3CC3)c3ncc(C#N)n3n2)c(F)c(N2CCN(C3CCOC3)CC2)c1 (centres unmarked) [Example 554, 2-((5-cyano-2-fluoro-3-(4-(tetrahydrofuran-3-yl)piperazin-1-yl)phenyl)amino)-4-(cyclopropylamino)imidazo[2,1-f][1,2,4]triazine-7-carbonitrile] | 8.30
N#Cc1cc(Nc2nc(NC3CC3)c3ncc(C#N)n3n2)c(Cl)c(N2CCN(CC3COCCN3)CC2)c1 (centres unmarked) [Example 598, 2-({2-chloro-5-cyano-3-[4-(morpholin-3-ylmethyl)piperazin-1-yl]phenyl}amino)-4-(cyclopropylamino)imidazo [2,1-f][1,2,4]triazine-7-carbonitrile] | 9.29
N#Cc1cc(Nc2nc(NC3CC3)c3ncc(C#N)n3n2)c(Cl)c(N2CCOC(C(=O)N3CCOCC3)C2)c1 (racemic) [Example 300, (+/−)2-((2-chloro-5-cyano-3-(2-(morpholine-4-carbonyl)morpholino)phenyl)amino)-4-(cyclopropylamino)imidazo[2,1-J][1,2,4]triazine-7-carbonitrile] | 8.79
CCNc1nc(Nc2cc(C#N)cc(N3CCN(C4CN(C(C)=O)C4)CC3)c2Cl)nn2c(C#N)cnc12 [Example 605, 2-({3-[4-(1-acetylazetidin-3-yl)piperazin-1-yl]-2-chloro-5-cyanophenyl}amino)-4-(ethylamino)imidazo[2,1-f][1,2,4]triazine-7-carbonitrile] | 9.04
N#Cc1cnc2c(NC3CC3)nc(Nc3cc(C(F)F)cc(N4CCN(C5COC5)CC4)c3Cl)nn12 [Example 242, 2-((2-Chloro-5-(difluoromethyl)-3-(4-(oxetan-3-yl)piperazin-1-yl)phenyl)amino)-4-(cyclopropylamino)imidazo[2,1-f][1,2,4]triazine-7-carbonitrile] | 8.89
N#Cc1cc(Nc2nc(NC3CC3)c3ncc(C#N)n3n2)c(F)cc1F [Example 414, 2-((5-cyano-2,4-difluorophenyl)amino)-4-(cyclopropylamino)imidazo[2,1-f][1,2,4]triazine-7-carbonitrile] | 9.00
[2H]C1(N2CCC(c3cc(C#N)cc(Nc4nc(NC5CC5)c5ncc(C#N)n5n4)c3Cl)CC2)COC1 [Example 223, 2-((2-chloro-5-cyano-3-(1-(3-~2~H)-3-oxetanyl-4-piperidinyl)phenyl)amino)-4-(cyclopropylamino)imidazo[2,1-f][1,2,4]triazine-7-carbonitrile] | 9.02
COC(=O)Nc1cc(Nc2nc(NC3CC3)c3ncc(C#N)n3n2)c(Cl)c(N2CC(N3CCN(C)CC3)C2)c1 [Example 203, methyl (4-chloro-3-((7-cyano-4-(cyclopropylamino)imidazo[2,1-f][1,2,4]triazin-2-yl)amino)-5-(3-(4-methyl-1-piperazinyl)-1-azetidinyl)phenyl)carbamate] | 8.75
N#Cc1cc(Nc2nc(NC3CC3)c3ncc(C#N)n3n2)c(Cl)c(N2CCN([C@H]3C[C@H](C#N)C3)CC2)c1 [Example 107, 2-((2-chloro-5-cyano-3-(4-(trans-3-cyanocyclobutyl)-1-piperazinyl)phenyl)amino)-4-(cyclopropylamino) imidazo[2,1-f][1,2,4] triazine-7-carbonitrite] | 9.23
CCNc1nc(Nc2cc(C#N)cc(N3CCN(CC4(C)COC4)CC3)c2Cl)nn2c(C#N)cnc12 [Example 603, 2-[(2-chloro-5-cyano-3-{4-[(3-methyloxetan-3-yl)methyl]piperazin-1-yl}phenyl)amino]-4-(ethylamino)imidazo[2,1-f] [1,2,4]triazine-7-carbonitrile] | 8.55
N#Cc1cc(Nc2nc(NC3CC3)c3ncc(C#N)n3n2)c(Cl)c(N2CCN(C(=O)C3CNC(=O)N3)CC2)c1 (racemic) [Example 81, (+/−)2-((2-chloro-5-cyano-3-(4-((2-oxo-4-imidazolidinyl)carbonyl)-1-piperazinyl)phenyl)amino)-4-(cyclopropylamino) imidazo[2,1-f][1,2,4] triazine-7-carbonitrile] | 8.74
N#Cc1cc(Nc2nc(NC3CC3)c3ncc(C#N)n3n2)c(Cl)c(C2CCN(C3CC[C@@H](N)[C@H](O)C3)CC2)c1 (stereo partly drawn) [Example 217, 2-((3-(1-((3R,4R)-4-amino-3-hydroxycyclohexyl)-4-piperidinyl)-2-chloro-5-cyanophenyl)amino)-4-(cyclopropylamino)imidazo[2,1-f][1,2,4]triazine-7-carbonitrile] | 9.22
N#Cc1cc(Nc2nc(NC3CC3)c3ncc(C#N)n3n2)c(Cl)c(N2CCN(C(=O)CN3CCOCC3)CC2)c1 [Example 100, 2-((2-chloro-5-cyano-3-(4-(4-morpholinylacetyl)-1-piperazinyl)phenyl)amino)-4-(cyclopropylamino) imidazo[2,1-f][1,2,4] triazine-7-carbonitrile] | 9.26
CCNc1nc(Nc2cc(C#N)cc(N3CCC4(CC3)CC(=O)N(C)C4)c2Cl)nn2c(C#N)cnc12 (racemic) [Example 783, (+/−)-2-((2-chloro-5-cyano-3-(2-methyl-3-oxo-2,8-diazaspiro[4.5]decan-8-yl)phenyl)amino)-4-(ethylamino)imidazo[2,1-f][1,2,4]triazine-7-carbonitrile] | 8.42
N#Cc1cc(Nc2nc(NC3CC3)c3ncc(C#N)n3n2)c(Cl)c(N2CC[C@H](N)[C@H](F)C2)c1 [Example 283, 2-((3-((3R,4S)-4-amino-3-fluoropiperidin-1-yl)-2-chloro-5-cyanophenyl)amino)-4-(cyclopropylamino)imidazo[2,1-f][1,2,4]triazine-7-carbonitrile, HCl] | 9.10
CN1CC(OC(=O)N2CCN(c3cc(C#N)cc(Nc4nc(NC5CC5)c5ncc(C#N)n5n4)c3Cl)CC2)C1 [Example 592, 1-methylazetidin-3-yl 4-(2-chloro-5-cyano-3-{[7-cyano-4-(cyclopropylamino)imidazo [2,1-f][1,2,4]triazin-2-yl]amino}phenyl) piperazine-1-carboxylate] | 9.36
N#Cc1cc(Nc2nc(NC3CC3)c3ncc(C#N)n3n2)c(Cl)c(N2CCN(C3CN(C(=O)[C@@H]4C[C@@H](O)CN4)C3)CC2)c1 [Example 498, 2-{[2-chloro-5-cyano-3-(4-{1-[(2S,4R)-4-hydroxypyrrolidine-2-carbonyl]azetidin-3-yl}piperazin-1-yl)phenyl]amino}-4-(cyclopropylamino)imidazo[2,1-f][1,2,4]triazine-7-carbonitrile] | 8.26
CC1(N2CCC(Oc3cc(C#N)cc(Nc4nc(NC5CC5)c5ncc(C#N)n5n4)c3Cl)CC2)COC1 [Example 427, 2-((2-chloro-5-cyano-3-((1-(3-methyloxetan-3-yl)piperidin-4-yl)oxy)phenyl)amino)-4-(cyclopropylamino)imidazo[2,1-f][1,2,4]triazine-7-carbonitrile] | 9.11
N#Cc1cc(Nc2nc(NC3CC3)c3ncc(C#N)n3n2)c(Cl)c(C2CCN(CC(F)F)CC2)c1 [Example 212, 2-(2-chloro-5-cyano-3-(1-(2,2-difluoroethyl)piperidin-4-yl)phenylamino)-4-(cyclopropylamino)imidazo[1,2-f][1,2,4]triazine-7-carbonitrile] | 9.11
N#Cc1cc(Nc2nc(NC3CC3)c3ncc(C#N)n3n2)c(Cl)c([C@H]2CCC[C@@H](N3CC(O)C3)C2)c1 (single isomer, unassigned) [Example 730] | 8.91
COC(=O)N[C@H]1CCN(c2cc(C#N)cc(Nc3nc(NC4CC4)c4ncc(C#N)n4n3)c2Cl)C[C@H]1NC1COC1 (single isomer, unassigned) [Example 745] | 8.91
CC(C(N)=O)N1CCC(c2cc(C#N)cc(Nc3nc(NC4CC4)c4ncc(C#N)n4n3)c2Cl)CC1 (racemic) [Example 639, (+/−)-2-(4-(2-chloro-5-cyano-3-((7-cyano-4-(cyclopropylamino)imidazo[2,1-f][1,2,4]triazin-2-yl)amino)phenyl)piperidin-yl)propanamide] | 8.89
COCC(=O)N1CC(N2CCN(c3cc(C#N)cc(Nc4nc(NC5CC5)c5ncc(C#N)n5n4)c3Cl)CC2)C1 [Example 497, 2-[(2-chloro-5-cyano-3-{4-[1-(2-methoxyacetyl)azetidin-3-yl]piperazin-1-yl}phenyl)amino]-4-(cyclopropylamino)imidazo[2,1-f][1,2,4]triazine-7-carbonitrile] | 9.09
CCNc1nc(Nc2cc(C#N)cc(N3CC[C@@H]4[C@@H](C3)OC(=O)N4[C@H]3CCOC3)c2Cl)nn2c(C#N)cnc12 (single isomer, unassigned) [Example 844] | 8.74
N#Cc1cc(Nc2nc(NC3CC3)c3ncc(C#N)n3n2)c(Cl)c(N2CCC3C(CCN3C[C@H](O)CF)C2)c1 (stereo partly drawn) [Example 449, 2-((2-chloro-5-cyano-3-(1-((S)-3-fluoro-2-hydroxypropyl)hexahydro-1H-pyrrolo[3,2-c]pyridin-5(6H)-yl)phenyl)amino)-4-(cyclopropylamino)imidazo[2,1-f][1,2,4]triazine-7-carbonitrile] | 9.04
